In ChEMBL document CHEMBL1148851, “Chemoenzymatic synthesis and in vitro studies on the hydrolysis of antimicrobial monoglycosyl diglycerides by pancreatic lipase” (2007):
≈ marks a conversion by molar mass, not a printed value.

System: Mycobacterium tuberculosis
Test: Antibacterial activity against Mycobacterium tuberculosis H190 by dilution method
Type: functional
Conditions: not given

SMILES	MIC
CCCCCCCC/C=C\CCCCCCCC(=O)OCC(CO[C@@H]1O[C@H](CO)[C@H](O)[C@H](O)[C@H]1O)OC(=O)CCCCCCC/C=C\CCCCCCCC (stereo partly specified)	> 128 µg/mL
CCCCC/C=C\C/C=C\CCCCCCCC(=O)OC(COC(=O)CCCCCCC)CO[C@@H]1O[C@H](CO)[C@@H](O)[C@H](O)[C@H]1O (stereo partly specified)	64 µg/mL (≈ 99.6 µM)
CCCCC/C=C\C/C=C\CCCCCCCC(=O)OCC(CO[C@@H]1O[C@H](CO)[C@@H](O)[C@H](O)[C@H]1O)OC(=O)CCCCCCC/C=C\C/C=C\CCCCC (stereo in doubt; 9g)	128 µg/mL (≈ 164 µM)

System: Candida albicans
Test: Antifungal activity against Candida albicans by dilution method
Type: functional
Conditions: not given

SMILES	MIC
CCCCCCCC/C=C\CCCCCCCC(=O)OCC(CO[C@@H]1O[C@H](CO)[C@H](O)[C@H](O)[C@H]1O)OC(=O)CCCCCCC/C=C\CCCCCCCC (stereo partly specified)	> 128 µg/mL
CCCCC/C=C\C/C=C\CCCCCCCC(=O)OC(COC(=O)CCCCCCC)CO[C@@H]1O[C@H](CO)[C@@H](O)[C@H](O)[C@H]1O (stereo partly specified)	> 128 µg/mL
CCCCC/C=C\C/C=C\CCCCCCCC(=O)OCC(CO[C@@H]1O[C@H](CO)[C@@H](O)[C@H](O)[C@H]1O)OC(=O)CCCCCCC/C=C\C/C=C\CCCCC (stereo in doubt; 9q)	> 128 µg/mL

System: Staphylococcus aureus
Test: Antibacterial activity against Staphylococcus aureus SA87 isolate
Type: functional
Conditions: not given

SMILES	MIC
CCCCC/C=C\C/C=C\CCCCCCCC(=O)OCC(CO[C@@H]1O[C@H](CO)[C@@H](O)[C@H](O)[C@H]1O)OC(=O)CCCCCCC/C=C\C/C=C\CCCCC (stereo in doubt; 9g)	64 µg/mL (≈ 82.1 µM)

Same assay, conditions: Staphylococcus aureus; read-out: MIC

SMILES	MIC
CCCCCCCC/C=C\CCCCCCCC(=O)OCC(CO[C@@H]1O[C@H](CO)[C@H](O)[C@H](O)[C@H]1O)OC(=O)CCCCCCC/C=C\CCCCCCCC (stereo partly specified)	> 128 µg/mL
CCCCC/C=C\C/C=C\CCCCCCCC(=O)OC(COC(=O)CCCCCCC)CO[C@@H]1O[C@H](CO)[C@@H](O)[C@H](O)[C@H]1O (stereo partly specified)	64 µg/mL (≈ 99.6 µM)
CCCCC/C=C\C/C=C\CCCCCCCC(=O)OCC(CO[C@@H]1O[C@H](CO)[C@@H](O)[C@H](O)[C@H]1O)OC(=O)CCCCCCC/C=C\C/C=C\CCCCC (stereo in doubt; 9q)	128 µg/mL (≈ 164 µM)

System: Kluyveromyces marxianus
Test: Antifungal activity against Candida pseudotropicalis by dilution method
Type: functional
Conditions: not given

SMILES	MIC
CCCCCCCC/C=C\CCCCCCCC(=O)OCC(CO[C@@H]1O[C@H](CO)[C@H](O)[C@H](O)[C@H]1O)OC(=O)CCCCCCC/C=C\CCCCCCCC (stereo partly specified)	> 128 µg/mL
CCCCC/C=C\C/C=C\CCCCCCCC(=O)OC(COC(=O)CCCCCCC)CO[C@@H]1O[C@H](CO)[C@@H](O)[C@H](O)[C@H]1O (stereo partly specified)	> 128 µg/mL
CCCCC/C=C\C/C=C\CCCCCCCC(=O)OCC(CO[C@@H]1O[C@H](CO)[C@@H](O)[C@H](O)[C@H]1O)OC(=O)CCCCCCC/C=C\C/C=C\CCCCC (stereo in doubt; 9q)	> 128 µg/mL

System: Staphylococcus aureus
Test: Antibacterial activity against Staphylococcus aureus ATCC 105487
Type: functional
Conditions: not given

SMILES	MIC
CCCCCCCC/C=C\CCCCCCCC(=O)OCC(CO[C@@H]1O[C@H](CO)[C@H](O)[C@H](O)[C@H]1O)OC(=O)CCCCCCC/C=C\CCCCCCCC (stereo partly specified)	> 128 µg/mL
CCCCC/C=C\C/C=C\CCCCCCCC(=O)OC(COC(=O)CCCCCCC)CO[C@@H]1O[C@H](CO)[C@@H](O)[C@H](O)[C@H]1O (stereo partly specified)	> 128 µg/mL
CCCCC/C=C\C/C=C\CCCCCCCC(=O)OCC(CO[C@@H]1O[C@H](CO)[C@@H](O)[C@H](O)[C@H]1O)OC(=O)CCCCCCC/C=C\C/C=C\CCCCC (stereo in doubt; 9q)	> 128 µg/mL

System: Staphylococcus aureus
Test: Antibacterial activity against Staphylococcus aureus ATCC 25923
Type: functional
Conditions: not given

SMILES	MIC
CCCCCCCC/C=C\CCCCCCCC(=O)OCC(CO[C@@H]1O[C@H](CO)[C@H](O)[C@H](O)[C@H]1O)OC(=O)CCCCCCC/C=C\CCCCCCCC (stereo partly specified)	> 128 µg/mL
CCCCC/C=C\C/C=C\CCCCCCCC(=O)OC(COC(=O)CCCCCCC)CO[C@@H]1O[C@H](CO)[C@@H](O)[C@H](O)[C@H]1O (stereo partly specified)	> 128 µg/mL
CCCCC/C=C\C/C=C\CCCCCCCC(=O)OCC(CO[C@@H]1O[C@H](CO)[C@@H](O)[C@H](O)[C@H]1O)OC(=O)CCCCCCC/C=C\C/C=C\CCCCC (stereo in doubt; 9q)	> 128 µg/mL

System: Mycobacterium tuberculosis
Test: Antibacterial activity against Mycobacterium tuberculosis H37Rv by dilution method
Type: functional
Conditions: not given

SMILES	MIC
CCCCC/C=C\C/C=C\CCCCCCCC(=O)OCC(CO[C@@H]1O[C@H](CO)[C@@H](O)[C@H](O)[C@H]1O)OC(=O)CCCCCCC/C=C\C/C=C\CCCCC (stereo in doubt; 9q)	128 µg/mL (≈ 164 µM)

Same assay, conditions: Mycobacterium tuberculosis, H37Rv; read-out: MIC

SMILES	MIC
CCCCCCCC/C=C\CCCCCCCC(=O)OCC(CO[C@@H]1O[C@H](CO)[C@H](O)[C@H](O)[C@H]1O)OC(=O)CCCCCCC/C=C\CCCCCCCC (stereo partly specified)	> 128 µg/mL
CCCCC/C=C\C/C=C\CCCCCCCC(=O)OC(COC(=O)CCCCCCC)CO[C@@H]1O[C@H](CO)[C@@H](O)[C@H](O)[C@H]1O (stereo partly specified)	64 µg/mL (≈ 99.6 µM)
CCCCC/C=C\C/C=C\CCCCCCCC(=O)OCC(CO[C@@H]1O[C@H](CO)[C@@H](O)[C@H](O)[C@H]1O)OC(=O)CCCCCCC/C=C\C/C=C\CCCCC (stereo in doubt; 9g)	64 µg/mL (≈ 82.1 µM)

System: Enterococcus faecalis
Test: Antibacterial activity against Enterococcus faecalis ATCC 29212
Type: functional
Conditions: not given

SMILES	MIC
CCCCCCCC/C=C\CCCCCCCC(=O)OCC(CO[C@@H]1O[C@H](CO)[C@H](O)[C@H](O)[C@H]1O)OC(=O)CCCCCCC/C=C\CCCCCCCC (stereo partly specified)	> 128 µg/mL
CCCCC/C=C\C/C=C\CCCCCCCC(=O)OC(COC(=O)CCCCCCC)CO[C@@H]1O[C@H](CO)[C@@H](O)[C@H](O)[C@H]1O (stereo partly specified)	> 128 µg/mL
CCCCC/C=C\C/C=C\CCCCCCCC(=O)OCC(CO[C@@H]1O[C@H](CO)[C@@H](O)[C@H](O)[C@H]1O)OC(=O)CCCCCCC/C=C\C/C=C\CCCCC (stereo in doubt; 9q)	> 128 µg/mL

System: Pseudomonas aeruginosa
Test: Antibacterial activity against Pseudomonas aeruginosa ATCC 27753
Type: functional
Conditions: not given

SMILES	MIC
CCCCCCCC/C=C\CCCCCCCC(=O)OCC(CO[C@@H]1O[C@H](CO)[C@H](O)[C@H](O)[C@H]1O)OC(=O)CCCCCCC/C=C\CCCCCCCC (stereo partly specified)	> 128 µg/mL
CCCCC/C=C\C/C=C\CCCCCCCC(=O)OC(COC(=O)CCCCCCC)CO[C@@H]1O[C@H](CO)[C@@H](O)[C@H](O)[C@H]1O (stereo partly specified)	> 128 µg/mL
CCCCC/C=C\C/C=C\CCCCCCCC(=O)OCC(CO[C@@H]1O[C@H](CO)[C@@H](O)[C@H](O)[C@H]1O)OC(=O)CCCCCCC/C=C\C/C=C\CCCCC (stereo in doubt; 9q)	> 128 µg/mL

System: Bacillus subtilis
Test: Antibacterial activity against Bacillus subtilis ATCC 6633
Type: functional
Conditions: not given

SMILES	MIC
CCCCC/C=C\C/C=C\CCCCCCCC(=O)OCC(CO[C@@H]1O[C@H](CO)[C@@H](O)[C@H](O)[C@H]1O)OC(=O)CCCCCCC/C=C\C/C=C\CCCCC (stereo in doubt; 9g)	128 µg/mL (≈ 164 µM)

Same assay, conditions: Bacillus subtilis, ATCC 6633; read-out: MIC

SMILES	MIC
CCCCCCCC/C=C\CCCCCCCC(=O)OCC(CO[C@@H]1O[C@H](CO)[C@H](O)[C@H](O)[C@H]1O)OC(=O)CCCCCCC/C=C\CCCCCCCC (stereo partly specified)	> 128 µg/mL
CCCCC/C=C\C/C=C\CCCCCCCC(=O)OC(COC(=O)CCCCCCC)CO[C@@H]1O[C@H](CO)[C@@H](O)[C@H](O)[C@H]1O (stereo partly specified)	128 µg/mL (≈ 199 µM)
CCCCC/C=C\C/C=C\CCCCCCCC(=O)OCC(CO[C@@H]1O[C@H](CO)[C@@H](O)[C@H](O)[C@H]1O)OC(=O)CCCCCCC/C=C\C/C=C\CCCCC (stereo in doubt; 9q)	128 µg/mL (≈ 164 µM)

System: Staphylococcus aureus
Test: Antibacterial activity against Staphylococcus aureus SA52 isolate
Type: functional
Conditions: not given

SMILES	MIC
CCCCCCCC/C=C\CCCCCCCC(=O)OCC(CO[C@@H]1O[C@H](CO)[C@H](O)[C@H](O)[C@H]1O)OC(=O)CCCCCCC/C=C\CCCCCCCC (stereo partly specified)	> 128 µg/mL
CCCCC/C=C\C/C=C\CCCCCCCC(=O)OC(COC(=O)CCCCCCC)CO[C@@H]1O[C@H](CO)[C@@H](O)[C@H](O)[C@H]1O (stereo partly specified)	> 128 µg/mL
CCCCC/C=C\C/C=C\CCCCCCCC(=O)OCC(CO[C@@H]1O[C@H](CO)[C@@H](O)[C@H](O)[C@H]1O)OC(=O)CCCCCCC/C=C\C/C=C\CCCCC (stereo in doubt; 9q)	> 128 µg/mL

System: Mycobacterium tuberculosis
Test: Antibacterial activity against Mycobacterium tuberculosis H160 by dilution method
Type: functional
Conditions: not given

SMILES	MIC
CCCCC/C=C\C/C=C\CCCCCCCC(=O)OCC(CO[C@@H]1O[C@H](CO)[C@@H](O)[C@H](O)[C@H]1O)OC(=O)CCCCCCC/C=C\C/C=C\CCCCC (stereo in doubt; 9q)	128 µg/mL (≈ 164 µM)

Same assay, conditions: Mycobacterium tuberculosis, H160; read-out: MIC

SMILES	MIC
CCCCCCCC/C=C\CCCCCCCC(=O)OCC(CO[C@@H]1O[C@H](CO)[C@H](O)[C@H](O)[C@H]1O)OC(=O)CCCCCCC/C=C\CCCCCCCC (stereo partly specified)	> 128 µg/mL
CCCCC/C=C\C/C=C\CCCCCCCC(=O)OC(COC(=O)CCCCCCC)CO[C@@H]1O[C@H](CO)[C@@H](O)[C@H](O)[C@H]1O (stereo partly specified)	128 µg/mL (≈ 199 µM)
CCCCC/C=C\C/C=C\CCCCCCCC(=O)OCC(CO[C@@H]1O[C@H](CO)[C@@H](O)[C@H](O)[C@H]1O)OC(=O)CCCCCCC/C=C\C/C=C\CCCCC (stereo in doubt; 9g)	64 µg/mL (≈ 82.1 µM)

System: Escherichia coli
Test: Antibacterial activity against Escherichia coli ATCC 25922
Type: functional
Conditions: not given

SMILES	MIC
CCCCCCCC/C=C\CCCCCCCC(=O)OCC(CO[C@@H]1O[C@H](CO)[C@H](O)[C@H](O)[C@H]1O)OC(=O)CCCCCCC/C=C\CCCCCCCC (stereo partly specified)	> 128 µg/mL
CCCCC/C=C\C/C=C\CCCCCCCC(=O)OC(COC(=O)CCCCCCC)CO[C@@H]1O[C@H](CO)[C@@H](O)[C@H](O)[C@H]1O (stereo partly specified)	> 128 µg/mL
CCCCC/C=C\C/C=C\CCCCCCCC(=O)OCC(CO[C@@H]1O[C@H](CO)[C@@H](O)[C@H](O)[C@H]1O)OC(=O)CCCCCCC/C=C\C/C=C\CCCCC (stereo in doubt; 9q)	> 128 µg/mL

System: Staphylococcus aureus
Test: Antibacterial activity against Staphylococcus aureus SA85 isolate
Type: functional
Conditions: not given

SMILES	MIC
CCCCCCCC/C=C\CCCCCCCC(=O)OCC(CO[C@@H]1O[C@H](CO)[C@H](O)[C@H](O)[C@H]1O)OC(=O)CCCCCCC/C=C\CCCCCCCC (stereo partly specified)	> 128 µg/mL
CCCCC/C=C\C/C=C\CCCCCCCC(=O)OC(COC(=O)CCCCCCC)CO[C@@H]1O[C@H](CO)[C@@H](O)[C@H](O)[C@H]1O (stereo partly specified)	> 128 µg/mL
CCCCC/C=C\C/C=C\CCCCCCCC(=O)OCC(CO[C@@H]1O[C@H](CO)[C@@H](O)[C@H](O)[C@H]1O)OC(=O)CCCCCCC/C=C\C/C=C\CCCCC (stereo in doubt; 9q)	> 128 µg/mL
